Results as given in US20250230155A1 (Vanderbilt University, priority 2021, published 2025).

Target: T1, human mAChR M4 (Homo sapiens, UniProt P08173)
T1 construct: expressed in transfected cells
T1 sequence (P08173 1-479): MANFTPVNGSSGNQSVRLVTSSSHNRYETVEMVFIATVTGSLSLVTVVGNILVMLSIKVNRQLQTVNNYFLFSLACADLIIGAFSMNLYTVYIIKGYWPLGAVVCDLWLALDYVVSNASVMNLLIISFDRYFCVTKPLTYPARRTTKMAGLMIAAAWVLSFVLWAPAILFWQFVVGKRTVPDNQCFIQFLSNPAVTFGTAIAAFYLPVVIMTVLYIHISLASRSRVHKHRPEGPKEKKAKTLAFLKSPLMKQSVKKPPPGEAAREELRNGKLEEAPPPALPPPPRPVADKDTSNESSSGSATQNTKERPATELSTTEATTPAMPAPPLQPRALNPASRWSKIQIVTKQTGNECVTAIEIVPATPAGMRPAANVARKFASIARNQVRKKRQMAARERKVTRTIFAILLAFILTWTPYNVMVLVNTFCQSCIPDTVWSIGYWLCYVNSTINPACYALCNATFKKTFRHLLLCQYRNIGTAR
Experiment: mAChR M4 cell-based functional assay (calcium mobilization, CHO-K1 hM4-Gqi5 cells)
Conditions: for Emax at 30 µM: CHO-K1, % ACh maximum at 30 μM, human M4; for EC50: positive allosteric modulator activity, increase in the EC20 acetylcholine response, CHO-K1 hM4-Gqi5 cells, read-out: Human M4 EC50
How it was run: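 Fluorescent calcium read-out (Fluo-4 AM, FDSS, 1 Hz) in hM4-Gqi5 CHO-K1 cells, 11-point 1:3 compound series. Agonism scored on compound addition, PAM activity as increase of the 144 s EC20 acetylcholine response, antagonism as decrease of the 230 s EC80 response; four-parameter logistic fits give EC50 and Emax.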

| Emax at 30 µM | EC50 | SMILES |
| --- | --- | --- |
| 86% | 43 nM | Cc1cc(C#N)cnc1N1CCc2ncc(N(C)c3ccnn3C)cc2C1 [Example 331, 5-methyl-6-(3-(methyl(1-methyl-1H-pyrazol-5-yl)amino)-7,8-dihydro-1,6-naphthyridin-6(5H)-yl)nicotinonitrile] |
| 101% | 191 nM | Cc1nn(C)c(C)c1-c1cnc2c(c1)CN(c1nnc(C#N)c(C)c1C)CC2 [Example 296, 4,5-dimethyl-6-(3-(1,3,5-trimethyl-1H-pyrazol-4-yl)-7,8-dihydro-1,6-naphthyridin-6(5H)-yl)pyridazine-3-carbonitrile] |
| 87% | 368 nM | Cc1c(C#N)nnc(N2CCc3ncc(-c4ccncc4)cc3C2)c1C [compound 74, 4,5-dimethyl-6-[3-(4-pyridyl)-7,8-dihydro-5H-1,6-naphthyridin-6-yl]pyridazine-3-carbonitrile] |
| 89% | 209 nM | Cc1c(C#N)nnc(N2Cc3cc(C(F)(F)F)cnc3CC2C)c1C (stereo not shown) [Example 367, 4,5-dimethyl-6-(7-methyl-3-(trifluoromethyl)-7,8-dihydro-1,6-naphthyridin-6(5H)-yl)pyridazine-3-carbonitrile] |
| 82% | 157 nM | Cc1c(C#N)nnc(N2CCc3ncc(Nc4cc(Cl)cnc4F)cc3C2)c1C [compound 82, 6-[3-[(5-chloro-2-fluoro-3-pyridyl)amino]-7,8-dihydro-5H-1,6-naphthyridin-6-yl]-4,5-dimethyl-pyridazine-3-carbonitrile] |
| 48% | 1710 nM | COc1ccc(Oc2cnc3c(c2)CN(c2nnc(C#N)c(C)c2C)CC3)cn1 [Example 302, 6-(3-((6-methoxypyridin-3-yl)oxy)-7,8-dihydro-1,6-naphthyridin-6(5H)-yl)-4,5-dimethylpyridazine-3-carbonitrile] |
| 81% | 7550 nM | Cc1cc(C#N)cnc1N1CCc2ncc(-c3ccnc(F)c3)cc2C1 [Example 340, 6-(3-(2-fluoropyridin-4-yl)-7,8-dihydro-1,6-naphthyridin-6(5)-yl)-5-methylnicotinonitrile] |
| 83% | 276 nM | Cc1cc(C#N)nnc1N1CCc2ncc(Oc3cccc(F)c3F)cc2C1 [Example 356, 6-(3-(2,3-difluorophenoxy)-7,8-dihydro-1,6-naphthyridin-6(5H)-yl)-5-methylpyridazine-3-carbonitrile] |
| 33% | 1140 nM | Cc1cc(C#N)cnc1N1CCc2ncc(-c3cnn(-c4ccc(F)cc4)c3)cc2C1 [compound 106, 6-[3-[1-(4-fluorophenyl)pyrazol-4-yl]-7,8-dihydro-5H-1,6-naphthyridin-6-yl]-5-methyl-pyridine-3-carbonitrile] |
| 86% | 1040 nM | Cc1ccncc1-c1cnc2c(c1)CN(c1nnc(C#N)cc1C)CC2 [Example 322, 5-methyl-6-(3-(4-methylpyridin-3-yl)-7,8-dihydro-1,6-naphthyridin-6(5H)-yl)pyridazine-3-carbonitrile] |
| 74% | 91 nM | Cc1cc(C(=O)N2CC(C(F)F)C2)nnc1N1CCc2ncc(-c3ccnn3C)cc2C1 [Example 562, (3-(difluoromethyl)azetidin-1-yl)(5-methyl-6-(3-(1-methyl-1H-pyrazol-5-yl)-7,8-dihydro-1,6-naphthyridin-6(5H)-yl)pyridazin-3-yl)methanone] |

Continued, molecule first:

| SMILES | Emax at 30 µM | EC50 |
| --- | --- | --- |
| Cc1cc(C(=O)N2CC3(COC3)C2)nnc1N1CCc2ncc(-n3cccn3)cc2C1 [Example 571, (6-(3-(1H-pyrazol-1-yl)-7,8-dihydro-1,6-naphthyridin-6(5H)-yl)-5-methylpyridazin-3-yl)(2-oxa-6-azaspiro[3.3]heptan-6-yl)methanone] | 85% | 213 nM |
| Cc1nc2c(c(N3CCc4ncc(C(F)(F)F)cc4C3)n1)CCC2 [compound 267, 6-(2-methyl-6,7-dihydro-5H-cyclopenta[d]pyrimidin-4-yl)-3-(trifluoromethyl)-5,6,7,8-tetrahydro-1,6-naphthyridine] |  | 1030 nM |
| Cc1cc(C(=O)N2CC3(COC3)C2)nnc1N1CCc2ncc(N3CCO[C@H](C)C3)cc2C1 [Example 575, (R)-(5-methyl-6-(3-(2-methylmorpholino)-7,8-dihydro-1,6-naphthyridin-6(5H)-yl)pyridazin-3-yl)(2-oxa-6-azaspiro[3.3]heptan-6-yl)methanone] | 75% | 88 nM |
| Cc1cc(C(=O)N2CCOCC2)nnc1N1CCc2ncc(N3CCCn4nccc43)cc2C1 [Example 515, (6-(3-(6,7-dihydropyrazolo[1,5-a]pyrimidin-4(5H)-yl)-7,8-dihydro-1,6-naphthyridin-6(5H)-yl)-5-methylpyridazin-3-yl)(morpholino)methanone] | 107% | 197 nM |
| Cc1cc(C(=O)N2CC(C)(C#N)C2)nnc1N1CCc2ncc(N3CCCn4nccc43)cc2C1 [Example 519, 1-(6-(3-(6,7-dihydropyrazolo[1,5-a]pyrimidin-4(5H)-yl)-7,8-dihydro-1,6-naphthyridin-6(5H)-yl)-5-methylpyridazine-3-carbonyl)-3-methylazetidine-3-carbonitrile] | 80% | 14 nM |
| Cc1cc(C(=O)NCC2CCOCC2)cnc1N1CCc2ncc(-c3cn(C)nc3C)cc2C1 [Example 459, 6-(3-(1,3-dimethyl-1H-pyrazol-4-yl)-7,8-dihydro-1,6-naphthyridin-6(5H)-yl)-5-methyl-N-((tetrahydro-2H-pyran-4-yl)methyl)nicotinamide] | 71% | 1190 nM |
| Cc1nc(NC2CC2)nc(N2CCc3ncc(Nc4ccnn4C)cc3C2)c1C [compound 278, 6-(2-(cyclopropylamino)-5,6-dimethylpyrimidin-4-yl)-N-(1-methyl-1H-pyrazol-5-yl)-5,6,7,8-tetrahydro-1,6-naphthyridin-3-amine] | 95% | 178 nM |
| [2H]C([2H])([2H])c1cnc2c(c1)CN(c1nnc(C(=O)N3CCCC3)cc1C)CC2 [Example 578, (5-methyl-6-(3-(methyl-d3)-7,8-dihydro-1,6-naphthyridin-6(5H)-yl)pyridazin-3-yl)(pyrrolidin-1-yl)methanone] | 105% | 2440 nM |
| Cc1cc(C(=O)NCc2ccc[nH]2)cnc1N1CCc2ncccc2C1 [compound 163, 6-(7,8-dihydro-5H-1,6-naphthyridin-6-yl)-5-methyl-N-(1H-pyrrol-2-ylmethyl)pyridine-3-carboxamide] | 65% | 2660 nM |
| Cc1cc(C(=O)NC2CN(CC(F)(F)F)C2)nnc1N1CCc2ncc(N3CCCn4nccc43)cc2C1 [Example 520, 6-(3-(6,7-dihydropyrazolo[1,5-a]pyrimidin-4(5H)-yl)-7,8-dihydro-1,6-naphthyridin-6(5H)-yl)-5-methyl-N-(1-(2,2,2-trifluoroethyl)azetidin-3-yl)pyridazine-3-carboxamide] | 104% | 43 nM |
| Cc1cc(C(=O)N2CC(Cl)C2)nnc1N1CCc2ncc(N3CCCn4nccc43)cc2C1 [Example 527, (3-chloroazetidin-1-yl)(6-(3-(6,7-dihydropyrazolo[1,5-a]pyrimidin-4(5H)-yl)-7,8-dihydro-1,6-naphthyridin-6(5H)-yl)-5-methylpyridazin-3-yl)methanone] | 129% | 16 nM |
| Cc1nc(Cl)c(C)c(N2Cc3cc(Nc4ccnn4C)cnc3C(C)(C)C2)n1 [compound 239, 6-(6-chloro-2,5-dimethylpyrimidin-4-yl)-8,8-dimethyl-N-(1-methyl-1H-pyrazol-5-yl)-5,6,7,8-tetrahydro-1,6-naphthyridin-3-amine] | 58% | 911 nM |
| Cc1cc(C(=O)N2CC(c3cccnc3)C2)nnc1N1CCc2ncc(N3CCO[C@H](C)C3)cc2C1 [Example 541, (R)-(5-methyl-6-(3-(2-methylmorpholino)-7,8-dihydro-1,6-naphthyridin-6(5H)-yl)pyridazin-3-yl)(3-(pyridin-3-yl)azetidin-1-yl)methanone] | 101% | 61 nM |
| Cc1cc(C(=O)NCc2ccc(C(F)(F)F)cn2)cnc1N1CCc2ncccc2C1 [compound 144, 6-(7,8-dihydro-5H-1,6-naphthyridin-6-yl)-5-methyl-N-[[5-(trifluoromethyl)-2-pyridyl]methyl]pyridine-3-carboxamide] | 61% | 6090 nM |
| FC(F)(F)c1cnc2c(c1)CN(c1nc(C3CC3)nc3c1CCC3)CC2 [compound 265, 6-(2-cyclopropyl-6,7-dihydro-5H-cyclopenta[d]pyrimidin-4-yl)-3-(trifluoromethyl)-5,6,7,8-tetrahydro-1,6-naphthyridine] |  | 1480 nM |
| Cc1cc(C(=O)N(C)C)nnc1N1CCc2ncc(N3CCCn4nccc43)cc2C1 [Example 556, 6-(3-(6,7-dihydropyrazolo[1,5-a]pyrimidin-4(5H)-yl)-7,8-dihydro-1,6-naphthyridin-6(5H)-yl)-N,N,5-trimethylpyridazine-3-carboxamide] | 87% | 1460 nM |
